Experimental data published in patent US20100298270A1, “Novel Compounds and Methods of Using Them” (SYNDAX PHARMACEUTICALS, INC., priority 2007, published 2010).

- melting point: 145 °C
SMILES: O=C(NCc1ccn(O)c(=O)c1)OCc1cccnc1 [Example 14, Pyridin-3-ylmethyl (1-hydroxy-2-oxo-1,2-dihydropyridin-4-yl)methylcarbamate]
